The test system of test [1] is normal human T-cells. The test can be described thus: Double immunofluorescence staining for VLA-6 laminin-binding integrin and TCR. Type of test: cell-based. As to conditions: untreated cells about 75% double positive; data not shown. From the text: Finally, the possibility that the stimulation of normal human T-cells by either GnRH-I, GnRH-II or anti-CD3+ anti-CD28 mAbs, elevates not only the non-integrin 67 kDa LR but also the expression level of the VLA-6 laminin-binding integrin (known to be expressed on T-cells) was investigated. […] Thus stimulation by GnRH-II and GnRH-I (as well as TCR-activation) primarily increases-the-protein surface expression of the non-integrin 67 kDa LR, but not of the VLA-6 laminin binding integrin.

Test [2] deals with normal human T-cells. Description: In-vitro chemotactic migration assay towards SDF-1 through laminin-coated filters. As to conditions: 10 nM, at least 18 h pretreatment; four independent experiments. The format is cell-based. As to the method: Normal human T-cells (1×10^6 cells/well in rest medium) were pretreated with GnRH-I or GnRH-II (10 nM, >18 hours, 37° C., 7.5% CO2 humidified incubator), washed, resuspended in adhesion medium and fluorescently labeled (50 μg/ml, 30 minutes, 37° C., 7.5% CO2 humidified incubator) with 2′,7′-bis-(2-carboxyethyl)-5-(and-6)-carboxyfluorescein acetoxymethyl (BCECF AM, Molecular Probes, Eugene, Oreg.). The cells were then washed, resuspended in adhesion medium, and added to the upper chambers (2×10^5 cells per 100 μl well) of a 24-well chemotaxis microchamber plate (Corning Inc., Corning, N.Y.). The two compartments of the microchambers were separated by polycarbonate filters ([…] pore size) pre-coated with laminin ([…], about 1.5 hour, 37° C.). […]
Adhesion of T-cells to components of the basement membrane is a crucial step in the series of events that eventually enable T-cells to migrate and extravasate from the blood stream to specific tissues. […] To determine whether GnRH can induce T-cells to migrate towards a chemoattractant, we made use of the Boyden chamber migration assay and scored the number of fluorescence-labeled normal human T-cells which migrated from a medium-containing upper chamber to a chemoattractant-containing lower chamber. […]

For a further test, the system named is EL-4 T-lymphoma cells. Description: Homing of GnRH-treated EL-4 T-lymphoma in vivo into specific organs of normal syngeneic mice. More on the design: species or system mouse. The note with it: EL-4 cells treated ex vivo 10 nM; for mean number of EL-4 labeled cells detected in the bone marrow: 48 h, C57BL/6 recipients n=5, untreated 149825±8424; for increase in entry into bone marrow over untreated control cells: C57BL/6 recipients; for entry of EL-4 cells into the spleen / level of EL-4 cells entry into thymus, kidney and liver, or their number in the plasma: vs untreated cells. As to the method: Mouse EL-4 T-lymphoma cells were incubated without any further treatment or with either GnRH-I or GnRH-II (10 nM) for […] (37° C., 7.5% CO2 in a humidified incubator) and then washed, counted, and fluorescently labeled with BCECF AM (30 minutes 37° C., 7.5% CO2 humidified incubator), as described above.
Normal syngeneic C57BL/6 female recipient mice were then subjected to 300 rad total body irradiation, and several hours later inoculated I.P with 5×10^6 cells/mouse of either untreated or GnRH-treated EL-4 lymphoma cells. In parallel, samples from the treated and GnRH inoculated EL-4 cells were tested by double immunofluorescence (as described above) for the level of their 67 kD LR and TCRαβ. After […], the spleen, thymus, kidney, liver, bone marrow, and a fixed volume of blood were removed from the recipient mice into tubes containing 10 ml PBS, and cell suspensions were prepared from each organ of each individual mouse. Following further dilution in PBS for the kidney (1:3) and liver (1:10), the number of fluorescent cells, as well as the total number of cells in each tube, were counted by flow cytometry (FACSORT).
To assess whether exposure of EL-4 T-lymphoma cells to GnRH modulated their immigration and organ invasion profiles in vivo, the EL-4 cells were treated ex vivo with GnRH-I or GnRH-II (10 nM, 48 h), loaded with a fluorescent dye, and inoculated into normal syngeneic C57BL/6 (H-2b) recipient mice. After 48 hours, the spleen, thymus, kidney, liver, bone marrow, and a fixed volume of blood were removed, individual cells suspensions were prepared and the number of labeled immigrating cells, as well as the total number of cells present in each organ (labeled+non-labeled) was counted by flow cytometry.

Entries after “also recorded” stand apart in the source; their conditions may differ.

The results in this text go back to US7951775B2, “Methods and pharmaceutical compositions for GnRH-I and GnRH-II modulation of T-cell activity, adhesion, migration and extravasation” (priority 2001, dated 2011).

“pGlu-His-Trp-Ser-Tyr-Gly-Leu-Arg-Pro-Gly-NH2 [GnRH-I]”: the “expression level of VLA-6 laminin-binding integrin” value in the test with normal human T-cells [1] is given as “unaffected”. Moreover, the “migration of T-cells towards chemoattractant SDF-1” value in the test with normal human T-cells [2] was “directly increase the migration potential; also recorded: significantly augments”. Besides, in the test with EL-4 T-lymphoma cells, the “mean number of EL-4 labeled cells detected in the bone marrow” value amounted to 321400±15165; the “increase in entry into bone marrow over untreated control cells” value is given as 115%; the “entry of EL-4 cells into the spleen” value is reported as “significant enhanced entry”; the “level of EL-4 cells entry into thymus, kidney and liver, or their number in the plasma” value is “did not affect”.

B1: GnRH-II: unique ten amino acid long neuropeptide, 70% homologous in peptide structure to GnRH-I, encoded by its own gene (peptide)
peptide: QHWSHGWYPGGKRALSSAQDPQNALRPPGRALDTAAGSPVQTAHGLPSDALAPLDDSMPWEGRTTAQWSLHRKRHLARTLLTAAREPRPAPPSSNKV
For the molecule B1, in the test on normal human T-cells [1], the “expression level of VLA-6 laminin-binding integrin” value is given as “unaffected”. The “migration of T-cells towards chemoattractant SDF-1” value in the test on normal human T-cells [2] was “directly increase the migration potential; also recorded: significantly augments”. In the test with EL-4 T-lymphoma cells, the “mean number of EL-4 labeled cells detected in the bone marrow” value is 219280±14003; the “increase in entry into bone marrow over untreated control cells” value was determined as 46%; the “entry of EL-4 cells into the spleen” value is on record as “significant enhanced entry”; the “level of EL-4 cells entry into thymus, kidney and liver, or their number in the plasma” value is “did not affect”.
